# Laboratory results from BindingDB's records for doi:10.1007/BF00173012 (Sandoz Pharma, 1994).
# *1 amine or outer side, *2 acyl side, *3 side chain or, on linkers, in order; H or OH if unused. Where a SMILES comes first, the peptide text is derived from it. Bridges are numbered along the chain shown (N, C = ends). [ ]: non-standard residue; d: D form. The star is where a group is joined. ξ: configuration not given here. X3 = C[C@@H](C(=O)[*:2])N(Cc1ccc2ccccc2c1)[*:1]; Phe(4-Cl) = N[C@@H](Cc1ccc(Cl)cc1)C(=O)O; d2Nal = N[C@H](Cc1ccc2ccccc2c1)C(=O)O; dThr(3ξ) = CC(O)[C@@H](N)C(=O)O; ξF = NC(Cc1ccccc1)C(=O)O; X2 = CC(O)[C@H](CO)N*; Ahp = NCCCCCCC(=O)O; ξC = NC(CS)C(=O)O
# Target: T1, Somatostatin receptor type 5 (Rattus norvegicus, UniProt P30938)
# T1 sequence (P30938 whole entry): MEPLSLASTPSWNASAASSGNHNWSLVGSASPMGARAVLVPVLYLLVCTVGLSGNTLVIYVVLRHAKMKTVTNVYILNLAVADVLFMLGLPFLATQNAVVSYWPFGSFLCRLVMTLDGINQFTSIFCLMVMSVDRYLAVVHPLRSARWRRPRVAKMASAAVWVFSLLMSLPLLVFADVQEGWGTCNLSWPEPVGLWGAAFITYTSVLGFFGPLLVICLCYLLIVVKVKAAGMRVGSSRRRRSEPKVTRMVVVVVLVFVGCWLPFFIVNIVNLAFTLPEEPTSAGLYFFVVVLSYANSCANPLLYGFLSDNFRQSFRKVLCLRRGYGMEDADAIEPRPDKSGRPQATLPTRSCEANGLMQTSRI
row,Structure (SMILES),Ki [nM]
1,CC(C)[C@@H]1NC(=O)[C@H](CCCCN)NC(=O)[C@@H](Cc2c[nH]c3ccccc23)NC(=O)[C@H](Cc2ccc(O)cc2)NC(=O)[C@@H](NC(=O)[C@H](N)Cc2ccc3ccccc3c2)CSSC[C@@H](C(=O)N[C@H](C(N)=O)[C@@H](C)O)NC1=O [3-(2-Naphtyl)-D-Ala-L-Cys(1)-L-Tyr-D-Trp-L-Lys-L-Val-L-Cys(1)-L-Thr-NH2],0.1
2,CC(C)[C@H](NC(=O)[C@H](CCCCN)NC(=O)[C@@H](Cc1c[nH]c2ccccc12)NC(=O)[C@H](Cc1ccc(O)cc1)NC(=O)[C@H](Cc1ccccc1)NC(=O)[C@@H](N)Cc1ccccc1)C(=O)N[C@@H](Cc1ccccc1)C(=O)N[C@H](C(N)=O)[C@@H](C)O [BIM-23058] (H-FFY[dW]KVFT-NH2),1.2
3,CC(CO)C(NC(=O)C1NC(=O)N[C@@H](Cc2ccc(O)cc2)C(=O)N[C@H](Cc2c[nH]c3ccccc23)C(=O)N[C@@H](CCCCN)C(=O)N[C@@H](C(C)CO)C(=O)NC(C(=O)N[C@@H](Cc2ccc3ccccc3c2)C(N)=O)SS1)C(N)=O (stereo partly drawn) [D-Nal-c[Cys-Tyr-D-Trp-Lys-Thr-Cys]-Thr-NH2],0.07
4,C[C@H](O)[C@@H]1NC(=O)C(CCCCN)NC(=O)[C@@H](Cc2c[nH]c3ccccc23)NC(=O)C(Cc2ccccc2)NC(=O)C(Cc2ccccc2)NC(=O)C(CC(N)=O)NC(=O)C(CCCCN)NC(=O)CCCCC[C@H](C(=O)O)NC(=O)[C@@H](CO)NC(=O)[C@H]([C@H](C)O)NC(=O)[C@@H](Cc2ccc(O)cc2)NC1=O (some centres not stated) [CGP-23996],4.67
5,C[C@@H](O)[C@@H]1NC(=O)[C@H](CCCCN)NC(=O)[C@@H](Cc2c[nH]c3ccccc23)NC(=O)[C@H](Cc2ccccc2)NC(=O)[C@H](Cc2ccc(Cl)cc2)NC(=O)CCCCCCNC(=O)[C@H](Cc2ccccc2)NC1=O [L-362862] (cyclo([Ahp][Phe(4-Cl)]F[dW]KTF)),0.46
6,CC(C)[C@H](NC(=O)[C@H](CCCCN)NC(=O)[C@@H](Cc1c[nH]c2ccccc12)NC(=O)[C@H](Cc1ccc(O)cc1)NC(=O)[C@H](C)NCc1ccc2ccccc2c1)C(=O)N[C@@H](C)C(=O)N[C@H](C(N)=O)[C@@H](C)O [D-Nal-Ala-Tyr-D-Trp-Lys-Val-Ala-Thr-NH2] (H-[X3]Y[dW]KVAT-NH2),145
7,CC(O)[C@H](CO)NC(=O)[C@@H]1CSSCC(NC(=O)C(N)Cc2ccccc2)C(=O)N[C@H](Cc2ccccc2)C(=O)N[C@H](Cc2c[nH]c3ccccc23)C(=O)N[C@H](CCCCN)C(=O)N[C@H](C(C)O)C(=O)N1 (some centres not stated) (H-[ξF][ξC][dF][dW][dK][dThr(3ξ)]C-X2; disulfide 2-7),0.57
8,CC(C)C1NC(=O)C(CCCCN)NC(=O)C(Cc2c[nH]c3ccccc23)NC(=O)C(Cc2ccc(O)cc2)NC(=O)C(C)N(C)C(=O)C(Cc2ccccc2)NC1=O (configuration not stated) [CAS_3086456],5.49
9,C[C@@H](Oc1ccccc1)[C@@H]1NC(=O)[C@H](CCCCN)NC(=O)[C@@H](Cc2c[nH]c3ccccc23)NC(=O)[C@H](Cc2ccccc2)NCCCCCCNC1=O [c[Aha-Phe-D-Trp-Lys-Thr(Bzl)]],51.3
10,CC(C)C1NC(=O)C(CCCCN)NC(=O)C(Cc2c[nH]c3ccccc23)NC(=O)C(Cc2ccc(O)cc2)NC(=O)C(NC(=O)C(N)Cc2ccccc2)CSSCC(C(=O)NC(Cc2c[nH]c3ccccc23)C(N)=O)NC1=O (configuration not stated) [CAS_71306] (H-FCYWKVCW-NH2; disulfide 2-7; configuration not given here),1.58
11,CC[C@@H]1NC(=O)[C@H](CCCCN)NC(=O)[C@@H](Cc2c[nH]c3ccccc23)NC(=O)[C@H](Cc2ccc(O)cc2)NC(=O)[C@@H](NC(=O)[C@H](N)Cc2ccccc2)CSSC[C@@H](C(=O)N[C@H](C(N)=O)[C@@H](C)O)NC1=O [D-Phe-L-Cys(1)-L-Tyr-D-Trp-L-Lys-L-Abu-L-Cys(1)-L-Thr-NH2],0.18

# Target: Somatostatin receptor type 4 (Mus musculus, UniProt P49660)
# Sequence (P49660 whole entry): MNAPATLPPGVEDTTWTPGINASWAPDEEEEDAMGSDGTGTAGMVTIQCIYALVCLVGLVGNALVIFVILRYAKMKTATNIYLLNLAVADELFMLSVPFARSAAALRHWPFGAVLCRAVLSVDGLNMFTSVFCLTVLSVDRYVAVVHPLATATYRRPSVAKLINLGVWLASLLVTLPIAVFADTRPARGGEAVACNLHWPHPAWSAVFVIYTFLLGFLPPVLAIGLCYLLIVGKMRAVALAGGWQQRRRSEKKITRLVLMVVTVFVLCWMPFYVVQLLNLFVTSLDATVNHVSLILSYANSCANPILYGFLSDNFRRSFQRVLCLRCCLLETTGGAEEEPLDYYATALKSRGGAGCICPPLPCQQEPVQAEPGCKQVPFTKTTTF
row,Structure (SMILES),Ki [nM]
1,CC(C)[C@H](NC(=O)[C@H](CCCCN)NC(=O)[C@@H](Cc1c[nH]c2ccccc12)NC(=O)[C@H](Cc1ccc(O)cc1)NC(=O)[C@H](C)NC(=O)[C@H](N)Cc1ccc2ccccc2c1)C(=O)N[C@@H](C)C(=O)N[C@H](C(N)=O)[C@@H](C)O [D-Nal-Ala-Tyr-D-Trp-Lys-Val-Ala-Thr-NH2] (H-[d2Nal]AY[dW]KVAT-NH2),1000
